7 compounds from ChEMBL document CHEMBL4359861, “Design, synthesis and anti-inflammatory evaluation of 3-amide benzoic acid derivatives as novel P2Y14 receptor antagonists” (Eur J Med Chem, 2019) can be followed below.

In one series the target is T1, P2Y purinoceptor 14 (Homo sapiens, UniProt Q15391).
T1 sequence (Q15391 whole entry): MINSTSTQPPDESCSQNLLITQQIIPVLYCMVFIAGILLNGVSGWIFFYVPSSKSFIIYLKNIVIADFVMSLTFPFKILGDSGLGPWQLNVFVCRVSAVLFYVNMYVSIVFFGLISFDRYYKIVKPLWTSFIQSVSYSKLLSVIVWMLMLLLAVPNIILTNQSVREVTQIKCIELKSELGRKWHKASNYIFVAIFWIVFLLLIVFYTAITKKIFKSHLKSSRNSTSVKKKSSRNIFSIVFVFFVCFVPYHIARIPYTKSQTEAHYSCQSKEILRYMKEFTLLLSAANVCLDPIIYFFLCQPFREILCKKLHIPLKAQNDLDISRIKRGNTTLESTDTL
Nature of the series: Antagonist activity at human P2Y14R stably expressed in human forskolin treated THP1 cells assessed as reduction in P2Y14R agonist UDPG-induced inhibition of cAMP production incubated for 15 mins by competitive enzyme-linked immunoassay. It counts as functional, cell-based. (Cyclic AMP is a second messenger, typically raised through Gs and lowered through Gi signalling.)

The subject of series [1] is THP-1. Nature of the series: Inhibition of pyroptosis in human THP1 cells assessed as inhibition of MSU-induced increase in IL-1beta level at 10 uM by ELISA. It counts as functional, cell-based.
In series [2] the test system is THP-1. Nature of the series: Inhibition of inflammasome in human THP1 cells assessed as reversal of MSU-induced increase in NLRP3 protein level at 10 uM pretreated for 1 hr followed by MSU treatment and measured after 12 hrs by Western blot analysis. It counts as functional, cell-based. For orientation: In western blotting, separated proteins are transferred to a membrane and probed.

In series [3] the test system is THP-1. Nature of the series: Inhibition of inflammasome in human THP1 cells assessed as reversal of MSU-induced increase in caspase1 p20 protein level at 10 uM pretreated for 1 hr followed by MSU treatment and measured after 12 hrs by Western blot analysis. It counts as functional, cell-based.
For series [4], the system named is THP-1. Nature of the series: Inhibition of inflammasome in human THP1 cells assessed as reversal of MSU-induced increase in ASC protein level at 10 uM pretreated for 1 hr followed by MSU treatment and measured after 12 hrs by Western blot analysis. It counts as functional, cell-based.
In series [5] the test system is THP-1. Nature of the series: Inhibition of pyroptosis in human THP1 cells assessed as inhibition of MSU-induced increase in caspase1 level at 10 uM pretreated for 1 hr followed by MSU treatment and measured after 12 hrs by PI staining based flow cytometric analysis. It counts as functional, cell-based. A general note: A flow cytometer gives signals particle by particle.

Series [6] has as its system THP-1. Nature of the series: Inhibition of inflammasome in human THP1 cells assessed as reversal of MSU-induced co-localization of NLRP3 at 10 uM pretreated for 1 hr followed by MSU treatment and measured after 12 hrs by DAPI staining based confocal laser scanning microscopic method. It counts as functional, cell-based.
The nature of series [7]: Solubility of compound in pH 7.4 PBS buffer vortex for 1 min followed by 10 mins sonication and further incubated for overnight under shaking condition by UV-vis absorption spectrometric method. The series is classed as physicochemical.
Series [8] concerns the target T2, P2Y purinoceptor 14 (Homo sapiens) (UniProt Q15391).
T2 sequence (whole entry): T1 sequence (Q15391 whole entry)
Nature of the series: Inhibition of P2Y14 in human THP1 cells assessed as reversal of MSU-induced reduction in cAMP production at 5 to 20 uM pretreated for 1 hr followed by MSU treatment and measured after 12 hrs by ELISA. The series is classed as functional, cell-based.

Series [9] in a line: Microsomal stability in human liver microsomes assessed as parent compound remaining at 20 uM measured for 10 to 120 mins in presence of NADPH by LC-MS/MS analysis. The series is classed as ADME, Microsome.
Series [10] deals with THP-1. Nature of the series: Inhibition of inflammasome in human THP1 cells assessed as reversal of MSU-induced increase in caspase1 p20 protein level at 5 to 20 uM pretreated for 1 hr followed by MSU treatment and measured after 12 hrs by Western blot analysis. It counts as functional, cell-based.
Series [11] relates to THP-1. Nature of the series: Inhibition of pyroptosis in human THP1 cells assessed as inhibition of MSU-induced increase in caspase1 level at 5 to 20 uM pretreated for 1 hr followed by MSU treatment and measured after 12 hrs by PI staining based flow cytometric analysis. It counts as functional, cell-based.
Series [12] has as its system THP-1. Nature of the series: Inhibition of pyroptosis in human THP1 cells assessed as inhibition of MSU-induced increase in IL-1beta level at 5 to 20 uM by ELISA. The series is classed as functional, cell-based.
The nature of series [13]: Ratio of solubility for test compound to solubility for PPTN. The series is classed as physicochemical.
Series [14] is described as follows: Microsomal stability in rat liver microsomes assessed as parent compound remaining at 20 uM measured for 10 to 120 mins in presence of NADPH by LC-MS/MS analysis. The series is classed as ADME, Microsome.
Series [15] relates to THP-1. Nature of the series: Inhibition of inflammasome in human THP1 cells assessed as reversal of MSU-induced increase in NLRP3 protein level at 5 to 20 uM pretreated for 1 hr followed by MSU treatment and measured after 12 hrs by Western blot analysis. The series is classed as functional, cell-based.
Series [16] relates to THP-1. Nature of the series: Inhibition of inflammasome in human THP1 cells assessed as reversal of MSU-induced increase in ASC protein level at 5 to 20 uM pretreated for 1 hr followed by MSU treatment and measured after 12 hrs by Western blot analysis. It counts as functional, cell-based.
Series [17] has as its system THP-1. Nature of the series: Inhibition of inflammasome in human THP1 cells assessed as reversal of MSU-induced co-localization of NLRP3 at 5 to 20 uM pretreated for 1 hr followed by MSU treatment and measured after 12 hrs by DAPI staining based confocal laser scanning microscopic method. It counts as functional, cell-based.

Values after ≈ are worked out from the molar mass of the structure shown. Active and inactive are the calls of the source. No cut-off for these calls is given here.

The term IC50 denotes the point on the concentration scale where inhibition reaches its midpoint. As for `O=C(O)c1cc(NC(=O)c2cnccn2)cc(-c2ccc(C3CCNCC3)cc2)c1`, the IC50 on P2Y purinoceptor 14 came out at 4.35 nM.
Still for that read-out and setting: next, `O=C(O)c1cc(NC(=O)c2ccc([N+](=O)[O-])cc2)cc(-c2ccc(C3CCNCC3)cc2)c1`: 5.06 nM.
Usually solubility (thermodynamic) stands for solubility found after equilibrating the solid with the medium. Take `O=C(O)c1cc(-c2ccc(C3CCNCC3)cc2)c2ccc(-c3ccc(C(F)(F)F)cc3)cc2c1` [PPTN]: the inhibition entry in the series on THP-1 [1], in the series on THP-1 [2], in the series with THP-1 [3], in the series with THP-1 [4], in the series on THP-1 [5] and with THP-1 [6] was “Active” in each case. In series [7], this compound yielded a solubility (thermodynamic) below 5 µg/mL.
By half-life is commonly meant how long it takes for the measured level to halve. Regarding `Cc1ccc(C(=O)Nc2cc(C(=O)O)cc(-c3ccc(C4CCNCC4)cc3)c2)cc1`, the inhibition entry (in [8]; in the series on THP-1 [10]; in the series on THP-1 [11]; with THP-1 [12]; in the series with THP-1 [15]; in the series with THP-1 [16]) was “Active” in each case. Further, in the series on THP-1 [17], the inhibition result was “Active”. For the same compound, the half-life at 20 µM in [9] and in series [14] was above 1 h in each case. Moreover, in [13], the Ratio is recorded as above 100. In addition, the IC50 on P2Y purinoceptor 14 stood at 1.77 nM. Besides, in series [7], the thermodynamic solubility was found to be 572 µg/mL (≈ 1380 µM).
For `O=C(O)c1cc(NC(=O)c2ccccc2)cc(-c2ccc(C3CCNCC3)cc2)c1`, the IC50 at P2Y purinoceptor 14 worked out at 4.95 nM.
Still for that read-out and setting: the result for `N#Cc1ccc(C(=O)Nc2cc(C(=O)O)cc(-c3ccc(C4CCNCC4)cc3)c2)cc1` reads 4.54 nM.
Turning to `O=C(O)c1cc(NC(=O)c2ccncc2)cc(-c2ccc(C3CCNCC3)cc2)c1`, the IC50 at P2Y purinoceptor 14 was 3.17 nM.
